These results are taken from patent US8324246B2, “Indol carboxylic acid bispyridyl carboxamide derivatives, pharmaceutically acceptable salt thereof, preparation method and composition containing the same as an active ingredient” (Korea Research Institute of Chemical Technology, priority 2008, dated 2012).

Like-named read-outs stand apart in the source and are kept apart here.

Data set [1] addresses T1, human gene recombinant 5-HT2c receptor expressed in CHO-K1 cell (Homo sapiens, UniProt P28335).
T1 construct: purchased Euroscreen, Belgium; host or cells: CHO-K1
T1 sequence (P28335 33-458): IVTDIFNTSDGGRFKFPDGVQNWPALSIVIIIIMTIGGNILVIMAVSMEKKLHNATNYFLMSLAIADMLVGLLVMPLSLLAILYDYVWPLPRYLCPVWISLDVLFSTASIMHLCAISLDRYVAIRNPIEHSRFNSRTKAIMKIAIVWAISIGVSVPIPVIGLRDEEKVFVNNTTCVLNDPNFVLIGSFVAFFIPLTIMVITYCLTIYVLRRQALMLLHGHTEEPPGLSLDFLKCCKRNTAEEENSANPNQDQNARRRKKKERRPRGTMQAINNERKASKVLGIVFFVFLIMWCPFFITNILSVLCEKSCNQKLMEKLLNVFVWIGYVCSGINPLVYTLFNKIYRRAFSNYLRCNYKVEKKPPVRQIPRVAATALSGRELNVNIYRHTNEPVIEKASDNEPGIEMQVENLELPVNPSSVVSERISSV
The experiment in a line: Binding affinity to the serotonin 5-HT2c receptor ([3H]mesulergine). The method, then:
As a receptor, a human gene recombinant 5-HT2c receptor expressed in CHO—K1 cell was purchased from Euroscreen, Belgium and used in the experiment, and as a radioactive isotope, [3H]mesulergine (Amersham Biosciences, UK).
A final volume of 0.25 ml reaction mixture was prepared by adding 50 mM Tris-HCl buffer (pH 7.7) containing one of the compounds in Examples 1-29 or Comparative Examples 1-2, 1 nM of [3H]mesulergine, 5-HT2c receptor membranes (4 D/well), 0.1% ascorbic acid and 10 µM pargyline, and incubated at 37° C. for 30 minutes. After incubation, the reaction was terminated by the rapid filtration using an Inotech harvester (Inotech) through a Wallace GF/C glass fiber filter (Wallac, Finland) which was presoaked in 1% BSA, and then washed with ice-cold 50 mM Tris-HCl buffer. The filter was covered with MeltiLex, sealed in a sample bag followed by drying in the oven, and counted by MicroBeta Plus (Wallac). Non-specific binding was determined in the presence of […] Mianserin. Three repeating experiments were carried out with 7-8 concentrations of the compound in Examples 1-29 or the compound in comparative examples 1-2, run in duplicate tubes, and isotherms from the three assays were calculated by a nonlinear regression analysis (GraphPad Prism Program, San Diego, USA) to yield IC50 values.

The target in a further data set is T2, D4 (Homo sapiens, UniProt P21917).
T2 sequence (P21917 1-419): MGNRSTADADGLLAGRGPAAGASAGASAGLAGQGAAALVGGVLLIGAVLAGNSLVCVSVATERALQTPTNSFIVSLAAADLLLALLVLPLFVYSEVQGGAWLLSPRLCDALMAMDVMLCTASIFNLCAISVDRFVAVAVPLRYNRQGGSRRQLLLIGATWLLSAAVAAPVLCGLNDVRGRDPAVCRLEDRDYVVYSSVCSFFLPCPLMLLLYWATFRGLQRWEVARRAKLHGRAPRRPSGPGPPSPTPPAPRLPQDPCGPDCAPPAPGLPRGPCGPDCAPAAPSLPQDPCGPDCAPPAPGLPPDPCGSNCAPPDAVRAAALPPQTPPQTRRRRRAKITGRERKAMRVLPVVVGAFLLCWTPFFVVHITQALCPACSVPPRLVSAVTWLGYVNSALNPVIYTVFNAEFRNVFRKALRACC
The experiment in a line: Receptor selectivity binding, D4. As to conditions: Table 3. How it is done:
(§1) For their high binding affinities for 5-HT2c, compounds in Examples 14 to 18, 20, and 22 or in Comparative Example 1 were used for the experiment with reaction mixtures. Except that CNS receptors such as 5-HT1a, 5-HT2a, 5-HT7, D2, D3 or D4 other than 5-HT2c were used as a receptor, IC50 values (nM) were measured in the same manner as in Experimental Example 1.

The target of a further data set is 5-HT2a (Homo sapiens, UniProt P28223). The experiment in a line: Receptor selectivity binding, 5-HT2a. The conditions noted are these: Table 3. How it is done: as §1
5-HT2a, sequence (P28223 whole entry, species assumed): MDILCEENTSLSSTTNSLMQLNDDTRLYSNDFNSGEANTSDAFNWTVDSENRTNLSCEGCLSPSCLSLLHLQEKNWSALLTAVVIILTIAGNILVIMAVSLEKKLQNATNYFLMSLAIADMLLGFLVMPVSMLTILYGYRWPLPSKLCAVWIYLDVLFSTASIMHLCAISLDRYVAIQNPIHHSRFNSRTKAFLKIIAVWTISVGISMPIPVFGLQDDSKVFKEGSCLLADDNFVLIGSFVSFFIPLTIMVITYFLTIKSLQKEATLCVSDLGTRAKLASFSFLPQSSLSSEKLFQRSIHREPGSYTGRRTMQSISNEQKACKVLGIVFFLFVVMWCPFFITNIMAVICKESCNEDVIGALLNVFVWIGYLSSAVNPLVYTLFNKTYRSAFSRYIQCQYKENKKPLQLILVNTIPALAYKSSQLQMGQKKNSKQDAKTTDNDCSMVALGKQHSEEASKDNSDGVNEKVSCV
The next data set has as its target D3 (Homo sapiens, UniProt P35462). The experiment in a line: Receptor selectivity binding, D3. As to conditions: Table 3. The method, then: as §1
The target of a further data set is D2 (Homo sapiens, UniProt P14416). The experiment in a line: Receptor selectivity binding, D2. As to conditions: Table 3. The method, then: as §1
D2, sequence (P14416 whole entry): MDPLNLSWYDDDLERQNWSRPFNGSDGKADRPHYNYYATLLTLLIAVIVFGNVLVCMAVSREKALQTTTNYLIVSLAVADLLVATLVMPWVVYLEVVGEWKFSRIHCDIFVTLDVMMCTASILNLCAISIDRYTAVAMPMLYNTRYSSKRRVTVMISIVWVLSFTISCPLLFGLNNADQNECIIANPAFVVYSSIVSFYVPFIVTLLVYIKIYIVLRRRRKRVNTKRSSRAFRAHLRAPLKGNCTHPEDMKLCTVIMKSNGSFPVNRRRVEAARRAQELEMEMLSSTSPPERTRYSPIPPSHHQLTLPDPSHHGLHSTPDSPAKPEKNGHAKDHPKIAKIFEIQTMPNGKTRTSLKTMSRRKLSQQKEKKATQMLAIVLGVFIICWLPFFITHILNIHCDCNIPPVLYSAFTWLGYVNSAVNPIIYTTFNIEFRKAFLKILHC
For a further data set, the target named is 5-HT7 (Homo sapiens, UniProt P34969). The experiment in a line: Receptor selectivity binding, 5-HT7. The conditions noted are these: Table 3. The method, then:
as §1

The target in another data set is T3, 5-HT1a (Homo sapiens, UniProt P08908).
T3 sequence (P08908 1-422): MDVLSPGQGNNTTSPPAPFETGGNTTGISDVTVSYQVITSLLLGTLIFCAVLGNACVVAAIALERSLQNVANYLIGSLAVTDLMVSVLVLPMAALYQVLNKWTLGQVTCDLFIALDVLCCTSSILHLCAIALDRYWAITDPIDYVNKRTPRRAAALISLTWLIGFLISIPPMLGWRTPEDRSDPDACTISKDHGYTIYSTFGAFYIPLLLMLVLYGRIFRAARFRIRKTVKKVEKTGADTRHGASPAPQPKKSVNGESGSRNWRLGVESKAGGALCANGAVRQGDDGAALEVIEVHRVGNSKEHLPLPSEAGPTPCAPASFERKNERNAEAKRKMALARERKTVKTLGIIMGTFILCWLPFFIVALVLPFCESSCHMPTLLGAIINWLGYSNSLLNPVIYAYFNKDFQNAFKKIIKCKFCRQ
The experiment in a line: Receptor selectivity binding, 5-HT1a. The conditions noted are these: Table 3. The method, then: as §1

The next data set concerns the target 5-HT6 (Homo sapiens, UniProt P50406). The experiment in a line: Receptor selectivity binding, 5-HT6. The conditions noted are these: Table 3. The method, then: as §1
Where [2] appears, read: [3H]mesulergine 1 nM, 37° C. 30 minutes, Table 2, read-out: IC50.

5-HT7, sequence (P34969 whole entry, species assumed): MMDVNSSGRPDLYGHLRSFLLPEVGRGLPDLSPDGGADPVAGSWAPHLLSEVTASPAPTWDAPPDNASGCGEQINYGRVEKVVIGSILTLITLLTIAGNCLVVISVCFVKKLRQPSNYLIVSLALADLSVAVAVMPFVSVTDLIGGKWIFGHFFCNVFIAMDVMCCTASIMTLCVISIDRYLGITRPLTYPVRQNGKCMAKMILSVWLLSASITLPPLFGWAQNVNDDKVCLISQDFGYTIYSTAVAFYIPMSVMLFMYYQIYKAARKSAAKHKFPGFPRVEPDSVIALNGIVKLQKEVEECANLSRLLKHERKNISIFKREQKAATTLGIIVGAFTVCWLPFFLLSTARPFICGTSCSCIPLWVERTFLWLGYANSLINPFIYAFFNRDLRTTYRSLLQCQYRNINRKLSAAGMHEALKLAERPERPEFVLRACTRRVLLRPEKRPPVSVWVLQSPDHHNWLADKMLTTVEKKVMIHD
5-HT6, sequence (P50406 whole entry, species assumed): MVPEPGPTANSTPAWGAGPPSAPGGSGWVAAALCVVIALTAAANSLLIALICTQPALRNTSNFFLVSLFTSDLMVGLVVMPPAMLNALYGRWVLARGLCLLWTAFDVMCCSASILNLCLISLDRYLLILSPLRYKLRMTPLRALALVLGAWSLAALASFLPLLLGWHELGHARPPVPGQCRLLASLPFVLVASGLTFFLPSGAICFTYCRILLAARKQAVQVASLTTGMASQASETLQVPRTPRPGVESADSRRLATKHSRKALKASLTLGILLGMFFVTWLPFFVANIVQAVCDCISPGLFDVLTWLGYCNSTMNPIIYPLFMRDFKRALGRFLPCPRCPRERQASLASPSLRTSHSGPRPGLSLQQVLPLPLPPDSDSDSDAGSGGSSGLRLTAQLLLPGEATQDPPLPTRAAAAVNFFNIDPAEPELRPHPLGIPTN
D3, sequence (P35462 whole entry): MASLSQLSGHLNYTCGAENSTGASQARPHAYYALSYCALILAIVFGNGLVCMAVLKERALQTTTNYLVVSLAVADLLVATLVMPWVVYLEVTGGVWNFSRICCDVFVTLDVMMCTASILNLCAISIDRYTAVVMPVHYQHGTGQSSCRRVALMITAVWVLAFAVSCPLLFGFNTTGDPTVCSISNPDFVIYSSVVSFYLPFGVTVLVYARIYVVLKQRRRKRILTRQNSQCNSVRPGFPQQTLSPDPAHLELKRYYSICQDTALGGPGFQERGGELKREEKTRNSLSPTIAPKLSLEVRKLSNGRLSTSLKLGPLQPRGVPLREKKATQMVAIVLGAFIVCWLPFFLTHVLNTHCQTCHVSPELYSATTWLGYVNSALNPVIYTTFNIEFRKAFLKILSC

Consider “1H-indole-2-carboxylic acid[6-(2-methyl-pyridine-3-yloxy)-pyridine-3-yl]-amide [Example 5]”, for which, in [1] (setting [2]), the half-inhibitory concentration (IC50) was 0.059 µM.
In the case of `Cc1cc2c(cc1C(F)(F)F)N(C(=O)Nc1ccc(Oc3cccnc3C)nc1)CC2` [Comparative Example 1, SB-243213, reference compound], the IC50 at D4 is greater than 10 µM; at 5-HT2a it was 0.0324 µM; at D3, greater than 1 µM; on D2, greater than 1 µM; on 5-HT7, greater than 1 µM; on 5-HT1a it was greater than 1 µM. Besides, the IC50 came to 0.667 µM on 5-HT6; 0.0007 µM in [1] (Table 3, read-out: IC50 5-HT2c); 0.0007 µM in data set [1] (setting [2]).
`Cc1cc2c(cc1C(F)(F)F)N(C(=O)Nc1ccc(OCc3ccccn3)nc1)CC2` [Comparative Example 2, SB-247853]: the melting point fell in the range of 220 to 222 °C. Also, in data set [1] (setting [2]), the IC50 stood at 0.0013 µM.
Taken in the same sequence, the figures for `Cc1ncccc1Oc1ccc(NS(=O)(=O)c2coc3ccccc23)cn1` [Example 1, benzofuran-3-sulfonic acid[6-(2-methyl-pyridine-3-yloxy)-pyridine-3-yl]-amide] were 128 to 129 °C and 0.321 µM.
Taken in the same sequence, the figures for `Cc1ncccc1Oc1ccc(NS(=O)(=O)c2csc3ccccc23)cn1` [Example 2, benzo[b]thiophene-3-sulfonic acid[6-(2-methyl-pyridine-3-yloxy)-pyridine-3-yl]-amide] were 93 to 95 °C and 0.572 µM.
For the compound `Cc1ncccc1Oc1ccc(NC(=O)c2coc3ccccc23)cn1` [Example 3, benzofuran-3-carboxylic acid[6-(2-methyl-pyridine-3-yloxy)-pyridine-3-yl]-amide], the melting point lay within 52 to 55 °C. The IC50 in [1] (setting [2]) came out at 0.167 µM.
On to `Cc1ncccc1Oc1ccc(NC(=O)c2csc3ccccc23)cn1` [Example 4, benzo[b]thiophene-3-carboxylic acid[6-(2-methyl-pyridine-3-yloxy)-pyridine-3-yl]-amide], for which the melting point lay within 81 to 83 °C. The IC50 in data set [1] (setting [2]) was 0.05 µM.
Taken in the same sequence, the figures for `Cc1ncccc1Oc1ccc(NC(=O)c2c[nH]c3ccccc23)cn1` [Example 6, 1H-indole-3-carboxylic acid[6-(2-methyl-pyridine-3-yloxy)-pyridine-3-yl]-amide] were 108 to 110 °C and 0.067 µM.
`Cc1ncccc1Oc1ccc(NC(=O)c2nc3ccccc3[nH]2)cn1` [Example 7, 1H-benzoimidazole-2-carboxylic acid[6-(2-methyl-pyridine-3-yloxy)-pyridine-3-yl]-amide] showed a melting point of 191 to 193 °C. Moreover, the IC50 in data set [1] (setting [2]) is greater than 10 µM.
The like results for `Cc1ncccc1Oc1ccc(NC(=O)c2ccc3ccccc3c2)cn1` [Example 8, naphthalene-2-carboxylic acid[6-(2-methyl-pyridine-3-yloxy)-pyridine-3-yl]-amide] were, in that order, 156 to 158 °C and 0.302 µM.
Regarding `Cc1ncccc1Oc1ccc(NCc2c[nH]c3ccccc23)cn1` [Example 9, (1H-indole-3-ylmethyl)-[6-(2-methyl-pyridine-3-yloxy)-pyridine-3-yl]-amine], the IC50 in data set [1] (setting [2]) was greater than 10 µM.
Still for that read-out and setting: the figure for `Cc1ncccc1Oc1ccc(NC(=S)c2c[nH]c3ccccc23)cn1` [Example 10] is 0.023 µM; for `Cc1ncccc1Oc1ccc(NC(=O)c2cn(C)c3ccccc23)cn1` [Example 11, 1-methyl-1H-indole-3-carboxylid acid[6-(2-methyl-pyridine-3-yloxy)-pyridine-3-yl]-amide] it is 0.474 µM.
On the same count and under the same terms, as for `Cc1ncccc1Oc1ccc(N(C)C(=O)c2c[nH]c3ccccc23)cn1` [Example 12, 1H-indole-3-carboxylic acid methyl-[6-(2-methyl-pyridine-3-yloxy)-pyridine-3-yl]-amide], the figure is 9.44 µM; as for `Cc1ncccc1Oc1ccc(N(C)C(=O)c2cn(C)c3ccccc23)cn1` [Example 13, 1-methyl-1H-indole-3-carboxylic acid methyl-[6-(2-methyl-pyridine-3-yloxy)-pyridine-3-yl]-amide], 6.37 µM; as for `O=C(Nc1ccc(Oc2cncnc2)nc1)c1c[nH]c2ccccc12` [Example 19, 1H-indole-3-carboxylic acid[6-(pyrimidin-5-yloxy)-pyridine-3-yl]-amide], 0.05 µM.
On to `Cc1ccc(Oc2ccc(NC(=O)c3c[nH]c4ccccc34)cn2)cn1` [Example 21, 1H-indole-3-carboxylic acid[6-(6-methyl-pyridine-3-yloxy)-pyridine-3-yl]-amide], for which the half-inhibitory concentration (IC50) in data set [1] (setting [2]) was found to be 2.25 µM.
With `O=C(Nc1ccc(Oc2cccnc2Br)nc1)c1c[nH]c2ccccc12` [Example 23, 1H-indole-3-carboxylic acid[6-(2-bromo-pyridine-3-yloxy)-pyridine-3-yl]-amide], the IC50 in [1] (setting [2]) was 0.106 µM.
Still for that read-out and setting: as for `O=C(Nc1ccc(Oc2cccnc2)nc1)c1c[nH]c2ccccc12` [Example 24, 1H-indole-3-carboxylic acid[6-(pyridine-3-yloxy)-pyridine-3-yl]-amide], the figure is 0.0016 µM; as for `O=C(Nc1ccc(Oc2ccccc2)nc1)c1c[nH]c2ccccc12` [Example 25, 1H-indole-3-carboxylic acid(6-phenoxy-pyridine-3-yl)-amide], 0.542 µM.
The same measure, in the same setting: the figure for `O=C(Nc1cccnc1)c1c[nH]c2ccccc12` [Example 26, 1H-indole-3-carboxylic acid pyridine-3-ylamide] is greater than 1 µM; for `O=C(Nc1ccc(-c2cccnc2)cc1)c1c[nH]c2ccccc12` [Example 27, 1H-indole-3-carboxylic acid (4-pyridine-3-yl-phenyl)-amide] it is 0.214 µM.
Still for that read-out and setting: as for `Cc1ccc2c(C(=O)Nc3ccc(Oc4cccnc4Cl)nc3)c[nH]c2c1` [Example 28, 6-methyl-1H-indole-3-carboxylic acid[6-(2-chloro-pyridine-3-yloxy)-pyridine-3-yl]-amide], the figure is 0.007 µM; as for `COc1nc(OC)nc(Oc2ccc(NC(=O)c3c[nH]c4ccccc34)cc2)n1` [Example 29, 1H-indole-3-carboxylic acid[4-(4,6-dimethoxy-[1,3,5]triazine-2-ylxoxy)-phenyl]-amide], greater than 10 µM.

The term IC50 denotes the point on the concentration scale where inhibition reaches its midpoint. As usually defined, the melting point is the temperature of the solid-liquid transition.
